The results in this text go back to US9540418B2, “Polypeptide specifically binding to rare earth nanoparticles and use thereof” (University of Science and Technology of China, priority 2012, dated 2017).

Data set [1] in a line: Binding ability of FITC-RE-1 to various inorganic nanomaterials (fluorescence spectrophotometer). The protocol:
10 μg of FITC-RE-1 polypeptide was incubated with 100 μL of various inorganic nanomaterials (1 mg/mL) at room temperature for 1 hr, and then centrifuged at 12000 rpm for 10 min. The resulting precipitate was washed 3 times. Then, a fluorescence spectrophotometer (RF-5301 PC, Shimadzu, Japan) was used to detect FITC (emission wavelength: 535 nm). The standard curve of fluorescence intensity vs. concentration for FITC-RE-1 was used as control, and thus the binding ability of the various inorganic nanomaterials to FITC-RE-1 polypeptide was determined. […] However, RE-1 hardly bound to non rare-earth materials, such as diamond, TiO2, SiO2, SiO3, and nano-silver (FIG. 4).

A short description of data set [2]: Dissociation of FITC-RE-1 from UCN over time. The settings on record: after 48 h, 37° C., shaking. It counts as binding. The protocol:
250 μg FITC-RE-1 was thoroughly mixed with 500 μg UCN. The excess and unbound polypeptides were washed off. Then, the mixture was divided into five aliquots. The aliquots were gently shaked on a shaking table at 37° C. The amount of FITC-RE-1 dissociated in the supernatants was measured by using a fluorescence spectrophotometer at different time points (0 hr, 2 hr, 12 hr, 24 hr, and 48 hr).

In a further data set the test system is mice liver. Kind of data set: Liver damage in mice livers (HE staining). It counts as in vivo, Balb/c mice. Conditions: UCP+RE-1 or UCP+AP-1, tail vein, 24 hr. The protocol:
(§1) Balb/c mice (purchased from SLAC Laboratory Animal (Shanghai, China), 6 weeks old, and weighed 20 g when used) were bred in a sterile housing, and then 300 μg (dosage: 15 mg/kg) UCN, UCN+PEG (containing 10 mg PEG), UCN+RE-1, UCP, UCP+RE-1, or UCP+AP-1 was injected through tail vein. An equal volume of normal saline was injected as a control. After 24 hr, the livers of the mice were removed and subjected to western blotting assay.
The mice livers obtained as described in Example 21 were in situ fixed with 2.5% glutaral-dimethyl arsine buffer (pH 7.4) at 4° C. for 1 hr, then fixed with 2% osmium tetroxide at room temperature for 1 hr, and then dehydrated with ethanol gradients. Then, the cell samples were embedded in paraffin. The embedded cell samples were cut into ultrathin slices, which were stained with HE (hematoxylin-eosin), and observed and imaged under fluorescence microscope.

In data set [3] the test system is living HeLa cells, the immobilized cells, and the cell culturing plate. Kind of data set: Nonspecific adherence of nanophosphors with or without RE-1 coating. It counts as cell-based. Conditions: 2 hr treatment, washed 3 times with PBS. The protocol: Living HeLa cells (purchased from Institute of Biochemistry and Cell Biology, SIBS, CAS) cultured in a 96-well plate, immobilized cells, and cell culturing plate were treated with UCN and UCN-S with or without RE-1 coating for 2 hr, respectively, and then washed with PBS for 3 times. The binding of UCN nanoparticles to the living HeLa cells, the immobilized cells, and the cell culturing plate was observed under a fluorescence microscope (Olympus IX71, Olympus, Japan) equipped with a 980 nm infrared laser (MDL-980 nm 1W, Changchun New Industries Optoelectronics Tech. Co., Ltd, China).

The test system of data set [4] is LC3 type II in mice liver. Kind of data set: Western blotting of LC3 in mice livers after tail vein injection. It counts as in vivo. Conditions: 300 μg (15 mg/kg) tail vein, 24 hr. On the procedure: Western blotting is performed as follows: After an incubation of 24 h, the cells are collected and lysed with lysis buffer (purchased from Beyotime Biotechnology, China). The lysate is boiled in boiling water for 10 min, subjected to 15% SDS-PAGE, and then transferred to nylon membrane (purchased from Amersham Inc.) by a wet transfer. In the Western blotting, Anti-LC3 (Light Chain 3 Protein Antibody, purchased from Novus Inc., Catalog #: NB 100-2220) is used as primary antibody; GAPDH (purchased from Millipore Inc.) is used as internal reference; and Horseradish peroxidase (HRP) conjugated goat anti-rabbit IgG (H+L) (Goat Anti-Rabbit IgG (H+L), HRP Conjugate) (purchased from Promega Inc.) is used as secondary antibody.
as §1
On the technique in general: In western blotting, separated proteins are transferred to a membrane and probed.

Data set [5] in a line: Inhibition of the binding of REOB-1 to Nd2O3 by RE-1 short peptide at various concentrations. On the procedure:
RE-1 short peptides at various concentrations (0 μg/mL, 1 μg/mL, 10 μg/mL, 50 μg/mL, 100 μg/mL, and 500 μg/mL) were incubated with 100 μL Nd2O3 (1 mg/mL) comprising REOB-1 phages at a titer of 10^8 at 37° C. for 2 hr. The resulting precipitate was washed 10 times. The phages binding to Nd2O3 were recovered. 5000 μg/mL of AP-1 short peptide was treated according to the same procedure as described above, as a control.

For the next data set, the system named is HeLa cells. Kind of data set: Autophagosome formation in HeLa cells by transmission electron microscope. It counts as cell-based. Conditions: 100 μg/mL UCN+RE-1 or UCP+RE-1, 24 hr. On the procedure:
HeLa cells were inoculated into a 24-well cell culturing plate at a density of about 3-5×10^4 cells/well, and cultured overnight for further use. At first, the medium was replaced with fresh DMEM medium, and then 100 μg/mL UCN, UCP, UCN+RE-1, or UCP+RE-1 was added. An equal volume of PBS was used as blank. After culturing for 24 hr, the cells were collected and in situ fixed with 2.5% glutaral-dimethyl arsine buffer (pH 7.4) at 4° C. for 1 hr, then fixed with 2% osmium tetroxide at room temperature for 1 hr, and then dehydrated with ethanol gradients. Then, the cell samples were embedded into epoxy resin (EPON812). The embedded cell samples were cut into ultrathin slices, which were stained with uranyl acetate and lead citrate, and observed and imaged under a transmission electron microscope (JEOL-1230, JEOL, Japan).

Another data set relates to HeLa-LC3 cells. Kind of data set: RE-1 blocking of nanophosphor-induced autophagy (LC3 aggregates and vacuoles). It counts as cell-based. Conditions: nanophosphors coated with RE-1, 24 hr. The protocol: The rare-earth upconversion nanophosphors (UCN, UCP, UCN-S) coated with RE-1 were prepared as follows: 50 μg, 10 μg, and 350 μg RE-1 was mixed with 100 μg UCN, UCP, or UCN-S, respectively, incubated at 37° C. for 2 hr, centrifuged at 12000 rpm, and then washed with water for 3 times to remove the excess and unbound RE-1 peptides. The resultant precipitate was resuspended in 100 μL water.
HeLa-LC3 cells were inoculated into a 96-well cell culturing plate at a density of about 1-2×10^4 cells/well, and cultured overnight for further use. At first, the medium was replaced with fresh DMEM medium, to which UCN, UCP, or UCN-S with or without the coating of RE-1 peptides was added at different concentrations (0 μg/mL, 10 μg/mL, 100 μg/mL, 1000 μg/mL). After culturing for 24 hr, the fluorescence generated by GFP reporter gene was observed, imaged, and measured under a fluorescence microscope.
The ability to induce cell autophagy was estimated by determining the numbers of LC3 aggregates and vacuoles.

Take “ACTARSPWICG [RE-1, RE-0 with terminal amino acids A and G added]”: the “binding to rare-earth metal oxides and rare-earth upconversion nanophosphors” value in data set [1] (10 μg FITC-RE-1, 1 mg/mL material, 1 hr, most strongly Y2O3, CeO2, Yb2O3, Nd2O3, UCN, UCN-S, UCP) was “strongly bound”. Further, the “binding to non rare-earth materials” value in data set [1] (diamond, TiO2, SiO2, SiO3, nano-silver, 10 μg FITC-RE-1, 1 hr) was “hardly bound”. Moreover, the “dissociation from UCN” value in data set [2] is recorded as “less than 0.7%”. Besides, in the data set on mice liver, the “effect of coating on liver damage induced by UCP” value is given as “significantly reduced the level of the damages to livers”. Further, in data set [3], the “nonspecific adherence of UCN coated with RE-1 versus UCN without RE-1 coating” value is “about 10 times lower” and the “nonspecific adherence of UCN-S coated with RE-1 versus UCN-S without RE-1 coating” value is “about 100 times lower”. The “effect of RE-1 coating of UCN and UCP on LC3 type II in mice liver” value in data set [4] was “significantly prevented the increase of LC3 type II”. Also, the “dependence of inhibition of REOB-1 binding to Nd2O3 on RE-1 concentration” value in data set [5] (0-500 μg/mL RE-1) is “concentration-dependent”. The “inhibition of the binding of REOB-1 to Nd2O3” value in data set [5] (RE-1 concentration greater than 10 μg/mL, REOB-1 titer 10^8, 37° C., 2 hr) was “nearly completely inhibited”. For the same sequence, in the data set with HeLa cells, the “inhibition of autophagosome formation induced by UCN, UCP” value is recorded as “significantly inhibited”. In addition, in the data set on HeLa-LC3 cells, the “inhibition of cell autophagy induced by UCN, UCP, and UCN-S” value is given as “significantly inhibited”.
